Experimental data taken from patent US20040062780A1, “Compositions and methods useful for the reduction of fine lines and wrinkles” (priority 2002, published 2004).

Key:
[1] = Dissolution of compounds in PEG-12 GDO lipid; type: physicochemical
Experimental: It will be appreciated that, while liposomes form spontaneously at the temperature of formation, cooling of liposomes after formation results in liposomes in trapped kinetic states. To minimize distortions in liposome structure upon such cooling, sterols such as cholesterol may be mixed with the lipid before liposome formation. It has been observed that cholesterol may be dissolved in PEG-12 GDO at up to about 10 percent by weight.
Tretinoin (all-trans retinoic acid), 6 mg, was dissolved in 500 μl of PEG-12 Glyceryl Dioleate. […] Distilled water, […], was added to the mixture and gently mixed. This yielded a concentration of 1 mg/ml. […] This solution can easily be incorporated into a cream, gel or lotion dosage form.

[2] = Spontaneous liposome formation of single lipids mixed with aqueous solution; type: physicochemical
Experimental: Lipids were tested at 2 weight percent in aqueous solution. Note that GDL means glycerol dilaurate, GDO means glycerol dioleate, GDM means glycerol dimyristate, GDP means glycerol dipalmitate, and GDS means glycerol distearate. For each lipid, the number after “PEG” indicates the numbers of C2H4O subunits in the PEG chain. The unsaturated dioleate lipids have similar packing parameters to the saturated dimyristate lipids.
Single lipids were tested for their ability to spontaneously form liposomes when mixed with an aqueous solution. PEG-12 GDO was obtained from Global 7 (New Jersey). All other lipids were synthesized for the experiment (see Table 1). For each experiment, water and lipid were separately equilibrated at the appropriate temperature. Two weight percent lipid was added to the aqueous solution, and the solution was analyzed for the presence of liposomes by optical light microscopy, cryo TEM, freeze fracture TEM, or hot stage microscopy.

CC1=C(/C=C/C(C)=C/C=C/C(C)=C/C(=O)O)C(C)(C)CCC1 [Tretinoin, all-trans retinoic acid, reference compound]
dissolution in PEG-12 Glyceryl Dioleate ([1]; 6 mg in 500 μl of PEG-12 Glyceryl Dioleate): Dissolution was complete

CC(C)CCC[C@@H](C)[C@H]1CC[C@H]2[C@@H]3CC=C4C[C@@H](O)CC[C@]4(C)[C@H]3CC[C@]12C [cholesterol]
amount dissolved in PEG-12 GDO ([1]; in PEG-12 GDO): up to 10 percent by weight

PEG-12 Glyceryl Dioleate [PEG-12 GDO]
Spontaneous Liposomes at 20° C. ([2]; 2 weight percent lipid in aqueous solution, 20° C.): YES | Spontaneous Liposomes at 37° C. ([2]; 2 weight percent lipid in aqueous solution, 37° C.): YES | Spontaneous Liposomes at 60° C. ([2]; 2 weight percent lipid in aqueous solution, 60° C.): YES | spontaneous liposome formation ([2]; all temperatures tested): spontaneously forms liposomes at all temperatures tested
